From US8673965B2, “Composition for the treatment of arthritis containing a dibenzo-p-dioxin derivative as the active ingredient” (Livechem, Inc., priority 2008, dated 2014) come the findings set out here.

One assay has as its system NF-kB. Put plainly: NFkB-luciferase reporter in IL-1α-stimulated rabbit articular cartilage tissue. The class given is cell-based. Conditions: 10 μg/mL, 5 ng/mL rhIL-1α. The procedure:
(§1) A five-week-old rabbit was killed, from the hock joint of which the articular cartilage was then taken. The articular surface (200˜220 mg/joint) was placed in a complete medium (DMEM, supplemented with heat inactivated 5% FBS; penicillin 100 U/mL; streptomycin 100 μg/mL) under sterile conditions. It was washed three or four times and then incubated at 37° C. for about 1˜2 days under sterile conditions and under 5% CO2/95% air conditions, after which AP-1-luciferase or NFkB-luciferase reporter plasmid DNA (each 0.5 μg: Stratagene) was transfected into the incubated tissue using a Lipofectamin transfection reagent (Invitrogen, Carlsbad, Calif., U.S.A.). After 24 hours, the complete medium was exchanged with a basic medium (DMEM, supplemented with heat inactivated 1% FBS, 10 mM HEPES, penicillin 100 U/mL, streptomycin 100 μg/mL). […] After 1 hour, the culture medium of each group was treated with 5 ng/mL rhIL-1α (R&D systems, Minneapolis, USA). Then, the culture medium was incubated at […] under 5% CO2/95% air conditions for 60 hours, and then treated with a lysis buffer (0.1M potassium phosphate buffer, pH 7.8/1% Triton X-100/1 mM DTT/2 mM EDTA), and the luciferase activity in the culture medium was measured using a luminometer (Monolight 2010).
On the technique in general: In a reporter assay the amount or activity of a reporter protein is the signal.

Another assay deals with AP-1. Put plainly: AP-1-luciferase reporter in IL-1α-stimulated rabbit articular cartilage tissue. The class given is cell-based. Conditions: 10 μg/mL, 5 ng/mL rhIL-1α; for inhibition at 10 µg/mL: Oryctolagus cuniculus, AP1, luciferase activity. As for the experimental part:
as §1

Another assay relates to arthritis induced rabbit. The experiment in a line: External-use compositions in collagenase arthritis induced rabbit. The class given is in vivo. Particulars: for Heating score / Limping score / Reddening score / Swelling score: score 0-3; for Max. Effect during Treatment: (total score 7th day − 14th day)/7th day; for Total Treatment Effect: (total score 7th day − 21st day)/7th day; for Healing Effect upon Discontinuation of Treatment: (total score 14th day − 21st day)/14th day. As for the experimental part:
The composition of a carrier used to absorb the active ingredient into the skin was made referring to Bookman et al (Can. Med. Assoc. J. 171(4) 333-338 (2004)).
In order to induce arthritis in the rabbit, six test groups were set up, and five rabbits were randomly assigned into each group. A collagenase solution (4 mg/mL, saline) was filtered with a 0.22 μm membrane. 2.5˜3.0 kg weighed rabbits assigned into six test groups were anesthetized with tiletamine-zolazepam (Zoletil 50, Virbac, France). The region around the right knee joint of each rabbit was shaved and disinfected, after which the articular cavity thereof was injected with 0.25 mL of saline in one test group and 0.25 mL of the collagenase solution in the other five test groups (Choi, et al. Osteoarthritis and Cartilage 10, 471-478 (2002)). […] This model has been adopted because it is similar to the degeneration of the cartilage tissue in the human degenerative arthritis.
From the 7th day, 0.3 mL of each of the external-use compositions of Table 3 was sufficiently applied two times per day for 7 days to the affected part of the five test groups treated with the collagenase solution, and no treatment was performed for the following 7 days in order to evaluate the fundamental healing effects. The swelling, reddening, heat and limping of the articular part were quantitatively evaluated on the day (0th day) immediately before collagenase treatment, the 7th day, the 14th day and the 21st day, using the evaluation criteria comprising 0 (normal), 1 (low), 2 (middle), 3 (high). In order to objectively evaluate the effects of respective treatment solutions, the total score at each evaluation was compared, and “maximum effect during treatment”, “total treatment effect”, “healing effect upon discontinuation of treatment” were calculated by the following equations.
(1) Maximum effect during treatment=(total score on 7th day−total score on 14th day)/total score on 7th day,
(2) Total treatment effect=(total score on 7th day−total score on 21st day)/total score on 7th day,
(3) Healing effect upon discontinuation of treatment=(total score on 14th day−total score on 21st day)/total score on 14th day.

Setting [1] is: 7th Day (before treatment), 1.5% active, 0.3 mL twice daily topical.
Where [2] appears, read: 14th Day (end of 7-day treatment).
Where [3] appears, read: 21st Day (7 days after discontinuation).

`CC(=O)Oc1ccccc1C(=O)O` [Aspirin, aspirin]: the “NF-kB Activity Inhibition (%)” value in the assay with NF-kB came to 48%. In addition, in the assay on AP-1, the inhibition at 10 µg/mL was found to be 46%. Further, in the assay with arthritis induced rabbit (7th Day (before treatment)), the Heating score was found to be 3.0 ± 0.00, the Limping score was found to be 2.8 ± 0.45 and the Reddening score stood at 2.8 ± 0.45. Besides, the Swelling score in the assay with arthritis induced rabbit (setting [1]) amounted to 3.0 ± 0.00. Besides, in the assay on arthritis induced rabbit (14th Day), the “Total Score” value was 6.0 ± 0.71, the Heating score stood at 1.4 ± 0.55, the Limping score is given as 1.4 ± 0.55 and the Reddening score is on record as 1.6 ± 0.55. Besides, the Swelling score in the assay on arthritis induced rabbit (setting [2]) was found to be 1.6 ± 0.55. Moreover, in the assay on arthritis induced rabbit (21st Day), the “Total Score” value was determined as 5.0 ± 1.0, the Heating score was determined as 1.2 ± 0.45, the Limping score worked out at 1.2 ± 0.45 and the Reddening score was 1.4 ± 0.55. Moreover, in the assay with arthritis induced rabbit (setting [3]), the Swelling score was determined as 1.2 ± 0.45. In the assay on arthritis induced rabbit, the “Max. Effect during Treatment” value was found to be 48.3%, the “Total Treatment Effect” value is given as 56.9% and the “Healing Effect upon Discontinuation of Treatment” value is on record as 16.7%.
On to `Cc1ccc(-c2cc(C(F)(F)F)nn2-c2ccc(S(N)(=O)=O)cc2)cc1` [Celecoxib, celecoxib], for which, in the assay with NF-kB, the “NF-kB Activity Inhibition (%)” value is 10%. In the assay with AP-1, this compound showed an inhibition at 10 µg/mL of 23%.
`O=C([O-])Cc1ccccc1Nc1c(Cl)cccc1Cl.[Na+]` [Dichlofenac Sodium]: in the assay with arthritis induced rabbit (7th Day (before treatment)), the “Total Score” value is given as 11.4 ± 1.34, the Heating score worked out at 2.8 ± 0.45, the Limping score worked out at 3.0 ± 0.00 and the Reddening score was determined as 2.8 ± 0.45. The same compound gave a Swelling score with arthritis induced rabbit (setting [1]) of 2.8 ± 0.45. For the same compound, in the assay with arthritis induced rabbit (14th Day), the “Total Score” value stood at 5.8 ± 1.3, the Heating score is 1.4 ± 0.55, the Limping score is listed as 1.6 ± 0.55 and the Reddening score turned out to be 1.4 ± 0.55. The Swelling score with arthritis induced rabbit (setting [2]) amounted to 1.4 ± 0.55. Besides, in the assay with arthritis induced rabbit (21st Day), the “Total Score” value came to 5.4 ± 0.55, the Heating score stood at 1.2 ± 0.45, the Limping score was determined as 1.4 ± 0.55 and the Reddening score is 1.4 ± 0.55. Also, the Swelling score with arthritis induced rabbit (setting [3]) was 1.4 ± 0.55. In addition, in the assay on arthritis induced rabbit, the “Max. Effect during Treatment” value was 49.1%, the “Total Treatment Effect” value is 52.6% and the “Healing Effect upon Discontinuation of Treatment” value is 6.9%.
In the case of `O=C(O)Cc1ccccc1Nc1c(Cl)cccc1Cl` [Dichlofenac, dichlofenac], the “NF-kB Activity Inhibition (%)” value in the assay with NF-kB was found to be 32%. For the same compound, in the assay with AP-1, the “AP-1 Activity Inhibition (%)” value is 34%.
Take `CC(C)Cc1ccc(C(C)C(=O)O)cc1` (stereo not shown) [Ibuprofen, ibuprofen]: the “NF-kB Activity Inhibition (%)” value in the assay on NF-kB is given as 23%. The compound further yielded an inhibition at 10 µg/mL in the assay on AP-1 of 27%.
Take `COc1ccc2c(c1)c(CC(=O)O)c(C)n2C(=O)c1ccc(Cl)cc1` [Indomethacin, indomethacin]: the inhibition at 10 µg/mL with AP-1 was determined as 34%.
For `CC(C(=O)O)c1cccc(C(=O)c2ccccc2)c1` (stereo not shown) [Ketoprofen, ketoprofen], the “NF-kB Activity Inhibition (%)” value in the assay on NF-kB is 12%. Further, in the assay with AP-1, testing at 10 µg/mL gave an inhibition of 22%.

A word on the inhibition: it is how much of the control response was suppressed. The low end stands for little suppression, the high end for strong suppression.
